Source: US10030004B2, “Compounds and methods of use” (Medivation Technologies LLC, priority 2014, dated 2018)
Where two headings read alike, the source gives them in different places.

Assays:
[1] = Pharmacokinetics and bioavailability in male mice after a single dose; assay type: in vivo; conditions: for AUC(0-t) / Cmax / Tmax / bioavailability / clearance / half-life: mouse, plasma; for half-life: read-out: Terminal t1/2 (converted)
[2] = Plasma and brain concentrations at 0.5 and 1 h in mice; assay type: in vivo; conditions: male, mouse
ALK6 (BMPR1B) = ALK6 (BMPR1B) (Homo sapiens (Human), UniProt O00238); test: In vitro kinase assay, ALK6; assay type: biochemical; conditions: 10 μM ATP; read-out: Inhibition of ALK6 IC50
ALK3 (BMPR1A) = ALK3 (BMPR1A) (Homo sapiens (Human), UniProt P36894); test: In vitro kinase assay, ALK3; assay type: biochemical; conditions: read-out: Inhibition of ALK3 IC50
ALK2 (ACVR1) = ALK2 (ACVR1) (Homo sapiens (Human), UniProt Q04771); test: In vitro kinase assay, ALK2; assay type: biochemical; conditions: 10 μM ATP; read-out: Inhibition of ALK2 IC50
[3] = brain, IV (2 mg/kg), read-out: Brain concentration
[4] = brain, PO (10 mg/kg), read-out: Brain concentration
[5] = plasma, IV (2 mg/kg), read-out: Plasma concentration
[6] = plasma, PO (10 mg/kg), read-out: Plasma concentration
[7] = brain, 2 mg/kg, IV, read-out: Brain Concentration
[8] = brain, 10 mg/kg, PO, read-out: Brain Concentration
[9] = plasma, 2 mg/kg, IV, read-out: Plasma Concentration
[10] = plasma, 10 mg/kg, PO, read-out: Plasma Concentration

Sequence of ALK3 (BMPR1A) (P36894 24-532): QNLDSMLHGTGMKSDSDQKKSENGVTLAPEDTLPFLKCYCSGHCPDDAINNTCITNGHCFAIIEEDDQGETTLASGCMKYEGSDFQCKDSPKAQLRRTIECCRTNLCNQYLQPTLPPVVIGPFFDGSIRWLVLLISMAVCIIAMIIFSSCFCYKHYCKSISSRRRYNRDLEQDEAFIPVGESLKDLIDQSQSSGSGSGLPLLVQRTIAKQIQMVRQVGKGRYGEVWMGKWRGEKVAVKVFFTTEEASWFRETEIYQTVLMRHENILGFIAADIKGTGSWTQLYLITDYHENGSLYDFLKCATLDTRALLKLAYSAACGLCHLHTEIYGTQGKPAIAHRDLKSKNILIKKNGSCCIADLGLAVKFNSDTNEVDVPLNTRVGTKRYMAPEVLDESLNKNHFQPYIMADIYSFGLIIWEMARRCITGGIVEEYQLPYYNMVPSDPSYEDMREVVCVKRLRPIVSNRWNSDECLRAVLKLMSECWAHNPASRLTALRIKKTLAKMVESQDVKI
Sequence of ALK2 (ACVR1) (Q04771 21-509): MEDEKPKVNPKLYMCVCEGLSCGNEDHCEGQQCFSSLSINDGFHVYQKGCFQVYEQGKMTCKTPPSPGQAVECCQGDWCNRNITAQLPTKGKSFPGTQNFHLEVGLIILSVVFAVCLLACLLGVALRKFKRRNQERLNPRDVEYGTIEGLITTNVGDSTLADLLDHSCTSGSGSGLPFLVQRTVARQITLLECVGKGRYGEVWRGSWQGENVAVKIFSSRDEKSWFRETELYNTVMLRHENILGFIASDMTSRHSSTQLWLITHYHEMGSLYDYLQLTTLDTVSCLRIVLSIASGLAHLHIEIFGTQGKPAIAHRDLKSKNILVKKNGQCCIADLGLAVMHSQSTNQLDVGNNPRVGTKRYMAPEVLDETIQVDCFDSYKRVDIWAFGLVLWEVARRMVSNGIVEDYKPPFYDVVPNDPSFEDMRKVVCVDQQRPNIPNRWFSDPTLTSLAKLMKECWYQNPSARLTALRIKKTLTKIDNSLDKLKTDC
Sequence of ALK6 (BMPR1B) (O00238 14-502): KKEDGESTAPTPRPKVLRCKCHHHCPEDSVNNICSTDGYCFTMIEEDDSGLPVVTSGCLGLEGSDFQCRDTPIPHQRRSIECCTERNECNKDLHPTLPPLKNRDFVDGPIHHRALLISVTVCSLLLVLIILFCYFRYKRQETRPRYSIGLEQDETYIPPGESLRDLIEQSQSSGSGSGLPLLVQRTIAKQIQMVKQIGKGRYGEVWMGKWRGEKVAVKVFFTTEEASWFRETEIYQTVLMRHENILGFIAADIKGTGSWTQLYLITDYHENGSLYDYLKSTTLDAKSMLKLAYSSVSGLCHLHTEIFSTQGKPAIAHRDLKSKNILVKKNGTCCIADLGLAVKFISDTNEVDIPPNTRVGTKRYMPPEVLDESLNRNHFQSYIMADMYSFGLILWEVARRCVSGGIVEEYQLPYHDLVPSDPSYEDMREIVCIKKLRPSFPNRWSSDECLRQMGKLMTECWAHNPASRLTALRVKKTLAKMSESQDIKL

`CC(C)c1cnc(-c2cc(Cl)ccc2F)cc1Nc1ccncc1C(=O)NC[C@H](C)O` (single isomer, unassigned) [2a] gave a V ([1]; intravenous, 2 mg/kg) of 4.14 L/kg, an AUC(0-t) ([1]; intravenous, 2 mg/kg) of 1.19 µM·h and a Cmax ([1]; intravenous, 2 mg/kg) of 544 nM. It also gave an AUC(0-t) ([1]; oral, 10 mg/kg) of 5.25 µM·h, a Cmax ([1]; oral, 10 mg/kg) of 1570 nM and a Tmax ([1]; oral, 10 mg/kg) of 0.5 h. The bioavailability ([1]; oral, 10 mg/kg) was 88%, the concentration at 0.5 h [2, 3] was 73.2 ng/mL and the concentration at 1 h [2, 3] was 82.4 ng/mL. For the same molecule, the concentration at 0.5 h [2, 4] was 202 ng/mL, the concentration at 1 h [2, 4] was 114 ng/mL and the concentration at 0.5 h [2, 5] was 310 ng/mL. It also gave a concentration at 1 h [2, 5] of 366 ng/mL, a concentration at 0.5 h [2, 6] of 1570 ng/mL and a concentration at 1 h [2, 6] of 905 ng/mL.
With `C=C(C)c1cnc(-c2cc(Cl)ccc2F)cc1Nc1ccncc1C(=O)NC[C@H](C)O` (single isomer, unassigned) [3a] the IC50 (ALK6 (BMPR1B)) was > 100 µM, the V ([1]; intravenous, 2 mg/kg) was 1.29 L/kg and the AUC(0-t) ([1]; intravenous, 2 mg/kg) was 2.56 µM·h. For the same molecule, the Cmax ([1]; intravenous, 2 mg/kg) was 602 nM, the clearance ([1]; intravenous, 2 mg/kg) was 12.8 mL/min/kg and the half-life ([1]; intravenous, 2 mg/kg) was 3.86 h. The AUC(0-t) ([1]; oral, 10 mg/kg) was 10.5 µM·h, the Cmax ([1]; oral, 10 mg/kg) was 1650 nM and the Tmax ([1]; oral, 10 mg/kg) was 0.25 h. It also gave a bioavailability ([1]; oral, 10 mg/kg) of 82%, a half-life ([1]; oral, 10 mg/kg) of 3.85 h and a concentration at 0.5 h [2, 3] of 173 ng/mL. For the same molecule, the concentration at 1 h [2, 3] was 168 ng/mL, the concentration at 0.5 h [2, 4] was 305 ng/mL and the concentration at 1 h [2, 4] was 406 ng/mL. The concentration at 0.5 h [2, 5] was 432 ng/mL, the concentration at 1 h [2, 5] was 365 ng/mL and the concentration at 0.5 h [2, 6] was 1280 ng/mL. It also gave a concentration at 1 h [2, 6] of 1250 ng/mL.
Molecule `CCc1cnc(-c2cc(Cl)ccc2F)cc1Nc1ccncc1C(=O)NC[C@H](C)O` (single isomer, unassigned) [11a] has an AUC(0-t) ([1]; intravenous, 2 mg/kg) of 3.15 µM·h, a Cmax ([1]; intravenous, 2 mg/kg) of 3610 nM and a clearance ([1]; intravenous, 2 mg/kg) of 24.7 mL/min/kg. The half-life ([1]; intravenous, 2 mg/kg) was 1.02 h, the AUC(0-t) ([1]; oral, 10 mg/kg) was 9.79 µM·h and the Cmax ([1]; oral, 10 mg/kg) was 3480 nM. For the same molecule, the Tmax ([1]; oral, 10 mg/kg) was 0.25 h, the bioavailability ([1]; oral, 10 mg/kg) was 62.2% and the half-life ([1]; oral, 10 mg/kg) was 1.65 h.
`CC(C)c1cnc(-c2cc(Cl)ccc2F)cc1Nc1ncncc1C(=O)NC[C@H](C)O` (single isomer, unassigned) [12a] gave a V ([1]; intravenous, 2 mg/kg) of 2.80 L/kg, an AUC(0-t) ([1]; intravenous, 2 mg/kg) of 3.69 µM·h and a Cmax ([1]; intravenous, 2 mg/kg) of 2150 nM. For the same molecule, the clearance ([1]; intravenous, 2 mg/kg) was 19.8 mL/min/kg, the half-life ([1]; intravenous, 2 mg/kg) was 1.63 h and the AUC(0-t) ([1]; oral, 10 mg/kg) was 14.5 µM·h. For the same molecule, the Cmax ([1]; oral, 10 mg/kg) was 4280 nM, the Tmax ([1]; oral, 10 mg/kg) was 0.5 h and the bioavailability ([1]; oral, 10 mg/kg) was 78.3%. The half-life ([1]; oral, 10 mg/kg) was 1.72 h.
For `COc1cnc(-c2cc(Cl)ccc2F)cc1Nc1ccncc1C(=O)NC[C@H](C)O` (single isomer, unassigned) [13a], the IC50 (ALK3 (BMPR1A)) was > 100 µM, the V ([1]; intravenous, 2 mg/kg) was 3.72 L/kg and the AUC(0-t) ([1]; intravenous, 2 mg/kg) was 1.56 µM·h. It also gave a Cmax ([1]; intravenous, 2 mg/kg) of 1420 nM, a clearance ([1]; intravenous, 2 mg/kg) of 20.7 mL/min/kg and a half-life ([1]; intravenous, 2 mg/kg) of 2.09 h. It also gave an AUC(0-t) ([1]; oral, 10 mg/kg) of 5.64 µM·h, a Cmax ([1]; oral, 10 mg/kg) of 1600 nM and a Tmax ([1]; oral, 10 mg/kg) of 0.25 h. For the same molecule, the bioavailability ([1]; oral, 10 mg/kg) was 72.3% and the half-life ([1]; oral, 10 mg/kg) was 2.85 h.
In the case of `C[C@H](O)CNC(=O)c1cnccc1Nc1cc(-c2cc(Cl)ccc2F)ncc1N(C)C` (single isomer, unassigned) [16a], the IC50 (ALK6 (BMPR1B)) is reported as > 1000 µM, the V ([1]; intravenous, 2 mg/kg) is reported as 0.967 L/kg and the AUC(0-t) ([1]; intravenous, 2 mg/kg) is reported as 4.41 µM·h. It also gave a Cmax ([1]; intravenous, 2 mg/kg) of 3400 nM, a clearance ([1]; intravenous, 2 mg/kg) of 17 mL/min/kg and a half-life ([1]; intravenous, 2 mg/kg) of 0.655 h. For the same molecule, the AUC(0-t) ([1]; oral, 10 mg/kg) was 7.5 µM·h, the Cmax ([1]; oral, 10 mg/kg) was 3420 nM and the Tmax ([1]; oral, 10 mg/kg) was 0.5 h. The bioavailability ([1]; oral, 10 mg/kg) was 34.1%, the half-life ([1]; oral, 10 mg/kg) was 2.36 h and the concentration at 0.5 h [2, 7] was 48 nM. The concentration at 1 h [2, 7] was 19 nM, the concentration at 0.5 h [2, 8] was 48 nM and the concentration at 1 h [2, 8] was 25 nM. It also gave a concentration at 0.5 h [2, 9] of 3040 nM, a concentration at 1 h [2, 9] of 1230 nM and a concentration at 0.5 h [2, 10] of 3420 nM. It also gave a concentration at 1 h [2, 10] of 1690 nM.
With `C=C(C)c1c(Nc2ccncc2C(=O)NC[C@H](C)O)cc(-c2cc(Cl)ccc2F)nc1N` (single isomer, unassigned) [23a] the IC50 (ALK2 (ACVR1)) was > 100 µM, the IC50 (ALK3 (BMPR1A); 10 μM ATP) was > 100 µM and the IC50 (ALK6 (BMPR1B)) was > 100 µM. The AUC(0-t) ([1]; intravenous, 2 mg/kg) was 1.11 µM·h, the Cmax ([1]; intravenous, 2 mg/kg) was 2560 nM and the clearance ([1]; intravenous, 2 mg/kg) was 66 mL/min/kg. The AUC(0-t) ([1]; oral, 10 mg/kg) was 0.907 µM·h, the Cmax ([1]; oral, 10 mg/kg) was 612 nM and the Tmax ([1]; oral, 10 mg/kg) was 0.25 h. It also gave a bioavailability ([1]; oral, 10 mg/kg) of 16.4%.
In the case of `C=C(C)c1cnc(-c2cc(Cl)ccc2F)cc1Nc1ncncc1C(=O)NC[C@H](C)O` [4a, (S)-4-(2-(5-chloro-2-fluorophenyl)-5-(prop-1-en-2-yl)pyridin-4-ylamino)-N-(2-hydroxypropyl)pyrimidine-5-carboxamide], the IC50 (ALK2 (ACVR1)) is reported as 10.6 µM.
In the case of `C=C(C)c1cnc(-c2cc(Cl)ccc2F)cc1Nc1ccncc1C(=O)N[C@@H](C)CO` [7a, (S)-4-(2-(5-chloro-2-fluorophenyl)-5-(prop-1-en-2-yl)pyridin-4-ylamino)-N-(1-hydroxypropan-2-yl)nicotinamide], the IC50 (ALK2 (ACVR1)) is reported as 10.9 µM and the IC50 (ALK3 (BMPR1A); 10 μM ATP) is reported as > 100 µM.
